According to patent US20100104534A1, “HYDRAZIDO-PEPTIDES AS INHIBITORS OF HCV NS3-PROTEASE” (priority 2007, published 2010):

test system: replicon; assay: Replicon assay; assay type: cell-based

Row | SMILES | IC50 [nM]
1 | CCCN(NC(=O)[C@@H]1[C@@H]2[C@H](CN1C(=O)[C@@H](NC(=O)NC1(CS(=O)(=O)C(C)(C)C)CCCCC1)C1(C)CCCCC1)C2(C)C)C(=O)N[C@@H](C)c1ccccc1 [Compound 1] | 500 to 3000
2 | CCCN(NC(=O)[C@@H]1[C@@H]2[C@H](CN1C(=O)[C@@H](NC(=O)N[C@H](CN(C)S(C)(=O)=O)C(C)(C)C)C(C)(C)C)C2(C)C)C(=O)N[C@@H](C)c1ccccc1 [Compound 2] | ≤ 500
3 | CCCN(NC(=O)[C@@H]1[C@@H]2[C@H](CN1C(=O)[C@@H](NC(=O)N[C@H](CN1C(=O)CC(C)(C)CC1=O)C(C)(C)C)C(C)(C)C)C2(C)C)C(=O)N[C@@H](C)c1ccccc1 [Compound 3] | ≤ 500
4 | CCCN(NC(=O)[C@@H]1[C@@H]2[C@H](CN1C(=O)[C@@H](NC(=O)N[C@H](CN1C(=O)C3CCC(C3)C1=O)C(C)(C)C)C(C)(C)C)C2(C)C)C(=O)N[C@@H](C)c1ccccc1 [Compound 5] | ≤ 500
5 | C[C@H](NC(=O)N(CC1CC1)NC(=O)[C@@H]1[C@@H]2[C@H](CN1C(=O)[C@@H](NC(=O)N[C@H](CN1C(=O)C3CCC(C3)C1=O)C(C)(C)C)C(C)(C)C)C2(C)C)c1ccccc1 [Compound 6] | 500 to 3000
